The record followed here is ChEMBL document CHEMBL1201862, “PubChem BioAssay data set” (2004).

The target of assay [1] is Latent membrane protein 1 (Human herpesvirus 4 (strain B95-8), UniProt P03230). Description: LMP1 TES1 pathway selectivity over dsRED control – imaging, HEK293T, dual-color eGFP/dsRED, cherry-picks, selectivity assay for LMP1 NF-kB inhibitor project, dose response (AID 588398). It is filed as functional, cell-based.
The test system of another assay is A-375. The assay is described as follows: MITF: Counter assay: A375 proliferation Measured in Cell-Based System Using Plate Reader - 2084-03_Inhibitor_Dose_DryPowder_Activity. [Related pubchem assays (depositor defined):AID488944]. It is filed as functional. The following applies: Homo sapiens.
Assay [2] concerns the target T1, Microphthalmia-associated transcription factor (Homo sapiens, UniProt O75030).
T1 sequence (O75030 whole entry): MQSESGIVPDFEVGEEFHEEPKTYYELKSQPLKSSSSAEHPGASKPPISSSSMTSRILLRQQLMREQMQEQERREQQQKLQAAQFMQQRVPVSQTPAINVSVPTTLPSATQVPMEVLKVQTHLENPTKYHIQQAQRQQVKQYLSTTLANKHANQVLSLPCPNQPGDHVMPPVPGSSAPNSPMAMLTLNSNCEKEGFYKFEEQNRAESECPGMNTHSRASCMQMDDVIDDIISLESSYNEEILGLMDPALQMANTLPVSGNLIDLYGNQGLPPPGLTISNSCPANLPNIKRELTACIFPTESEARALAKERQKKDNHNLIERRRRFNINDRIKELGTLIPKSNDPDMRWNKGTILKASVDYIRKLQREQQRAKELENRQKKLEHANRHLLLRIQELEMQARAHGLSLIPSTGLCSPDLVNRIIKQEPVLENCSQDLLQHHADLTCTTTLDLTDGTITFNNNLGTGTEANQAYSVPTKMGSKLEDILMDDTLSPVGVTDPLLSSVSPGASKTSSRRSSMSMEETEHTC
The assay is described as follows: reducers of TRPM1 reporter luminescence, concentration series – cell-based, SK-MEL-5, cherry-picked, set 3, MITF inhibitor project, dose response (AID 493073).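 Note: SK-MEL-5 melanoma cells with luciferase driven by the MITF target TRPM1 promoter.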 It is filed as functional.

A short description of assay [3]: viability of PTEN-deleted HCT116 cells – cell-based, HCT116 PTEN knockout, dose response (AID 1047).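 Note: HCT116 colon tumor cells with PTEN knocked out; cells exposed to compound for 60 hours before readout.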 It is filed as functional.
Assay [4] can be described thus: viability of HCT116 lacking mutant beta-catenin – cell-based, human colon tumor, dose response (AID 1045).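 Note: HCT116 colon tumor cells with beta catenin knocked out; cells exposed to compound for 60 hours.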 Format: functional.
The subject of the next assay is CHO. Description: CHO cell viability loss, potency – luminescence, cytotoxicity control for TLR9-MyD88 binding inhibitor project, dose response (AID 588339).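 Note: CHO cells stably coexpressing TLR9 and MyD88 fusions from primary screen; compound exposure lasted 48 hours before viability readout.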 It is filed as functional, cell-based, hamster. Conditions: Cricetulus griseus.
Assay [5] has as its target Multidrug resistance protein CDR1 (Candida albicans, UniProt P43071). The assay is described as follows: inhibition of Nile Red efflux via Candida CDR1 – S. cerevisiae AD1-8u, singleplex, Cherry Pick1 hits, dose response (AID 588606). Format: functional.
For assay [6], the target named is Benomyl/methotrexate resistance protein (Candida albicans, UniProt P28873). The assay is described as follows: Candida albicans Mdr1 pump inhibition curves – singleplex, Cherry Pick1 hits, dose response (AID 588608). It is filed as functional.
Chain of Benomyl/methotrexate resistance protein (P28873 whole entry): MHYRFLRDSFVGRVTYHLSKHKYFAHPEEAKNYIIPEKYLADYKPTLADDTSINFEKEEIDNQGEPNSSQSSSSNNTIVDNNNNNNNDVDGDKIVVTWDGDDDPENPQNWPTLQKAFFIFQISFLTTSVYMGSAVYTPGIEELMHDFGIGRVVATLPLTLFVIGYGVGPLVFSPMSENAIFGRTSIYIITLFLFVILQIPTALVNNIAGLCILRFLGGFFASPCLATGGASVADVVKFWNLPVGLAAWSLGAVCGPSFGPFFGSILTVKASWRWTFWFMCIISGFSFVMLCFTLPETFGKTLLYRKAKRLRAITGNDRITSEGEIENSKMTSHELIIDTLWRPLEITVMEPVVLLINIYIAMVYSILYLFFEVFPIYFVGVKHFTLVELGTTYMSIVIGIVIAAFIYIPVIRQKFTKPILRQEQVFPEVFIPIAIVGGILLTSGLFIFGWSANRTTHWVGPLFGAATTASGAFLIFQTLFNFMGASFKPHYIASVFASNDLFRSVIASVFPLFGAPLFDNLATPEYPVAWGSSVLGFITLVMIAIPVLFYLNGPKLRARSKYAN
The next assay concerns the target T2, Hexokinase-1 (Homo sapiens, UniProt P19367).
T2 sequence (P19367 whole entry): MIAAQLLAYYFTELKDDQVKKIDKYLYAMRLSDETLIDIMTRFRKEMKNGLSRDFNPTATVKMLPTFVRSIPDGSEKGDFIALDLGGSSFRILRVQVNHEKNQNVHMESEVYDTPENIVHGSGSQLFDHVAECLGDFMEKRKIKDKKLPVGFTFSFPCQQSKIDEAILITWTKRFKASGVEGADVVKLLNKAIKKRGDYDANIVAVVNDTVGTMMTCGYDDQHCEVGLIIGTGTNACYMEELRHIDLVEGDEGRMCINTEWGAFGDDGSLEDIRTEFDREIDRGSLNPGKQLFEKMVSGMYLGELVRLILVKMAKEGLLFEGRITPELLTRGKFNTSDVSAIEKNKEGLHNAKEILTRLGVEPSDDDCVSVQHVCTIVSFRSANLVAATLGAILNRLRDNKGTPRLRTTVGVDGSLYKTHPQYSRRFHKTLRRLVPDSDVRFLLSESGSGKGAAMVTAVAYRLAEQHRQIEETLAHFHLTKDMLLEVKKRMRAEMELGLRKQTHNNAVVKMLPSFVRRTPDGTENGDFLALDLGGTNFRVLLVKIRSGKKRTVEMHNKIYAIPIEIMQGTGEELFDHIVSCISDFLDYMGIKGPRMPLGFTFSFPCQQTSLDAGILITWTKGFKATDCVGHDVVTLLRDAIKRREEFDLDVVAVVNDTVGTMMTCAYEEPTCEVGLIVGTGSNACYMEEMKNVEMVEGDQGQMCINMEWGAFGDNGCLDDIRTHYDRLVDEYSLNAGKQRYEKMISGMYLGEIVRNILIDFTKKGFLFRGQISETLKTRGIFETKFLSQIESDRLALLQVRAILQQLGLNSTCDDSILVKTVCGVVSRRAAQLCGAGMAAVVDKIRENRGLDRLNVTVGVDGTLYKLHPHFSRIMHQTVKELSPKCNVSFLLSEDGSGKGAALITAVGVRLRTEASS
Description: SAR analysis of small molecule inhibitors of hexokinase domain containing I (HKDC1) in the hexokinase 1 selectivity assay. [Related pubchem assays (depositor defined):AID493160, AID493190]. Format: functional.

The next assay addresses T3, Hexokinase HKDC1 (Homo sapiens, UniProt Q2TB90).
T3 sequence (Q2TB90 whole entry): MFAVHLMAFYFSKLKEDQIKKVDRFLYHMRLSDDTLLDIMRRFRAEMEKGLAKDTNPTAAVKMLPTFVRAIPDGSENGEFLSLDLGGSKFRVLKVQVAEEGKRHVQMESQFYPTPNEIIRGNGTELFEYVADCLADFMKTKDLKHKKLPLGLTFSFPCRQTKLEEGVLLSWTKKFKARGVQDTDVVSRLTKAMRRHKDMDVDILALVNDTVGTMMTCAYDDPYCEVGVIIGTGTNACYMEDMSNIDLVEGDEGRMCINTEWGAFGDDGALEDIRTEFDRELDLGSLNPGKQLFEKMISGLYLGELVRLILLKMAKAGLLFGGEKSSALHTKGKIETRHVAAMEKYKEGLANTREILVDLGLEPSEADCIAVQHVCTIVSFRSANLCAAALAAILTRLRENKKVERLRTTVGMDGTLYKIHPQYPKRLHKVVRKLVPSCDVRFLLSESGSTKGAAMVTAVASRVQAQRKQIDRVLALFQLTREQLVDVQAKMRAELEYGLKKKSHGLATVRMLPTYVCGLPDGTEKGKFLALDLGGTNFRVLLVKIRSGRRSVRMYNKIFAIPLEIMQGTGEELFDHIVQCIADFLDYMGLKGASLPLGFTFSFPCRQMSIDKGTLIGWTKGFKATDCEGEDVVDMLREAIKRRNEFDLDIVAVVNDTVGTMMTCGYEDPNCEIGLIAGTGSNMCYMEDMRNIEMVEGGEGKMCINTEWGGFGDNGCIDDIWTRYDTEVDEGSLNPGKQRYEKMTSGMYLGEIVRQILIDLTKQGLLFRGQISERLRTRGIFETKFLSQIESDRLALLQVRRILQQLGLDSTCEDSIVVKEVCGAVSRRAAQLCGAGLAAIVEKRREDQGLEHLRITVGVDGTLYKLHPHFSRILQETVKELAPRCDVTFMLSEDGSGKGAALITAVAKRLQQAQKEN
The assay is described as follows: SAR analysis of small molecule inhibitors of hexokinase domain containing I (HKDC1). [Related pubchem assays (depositor defined):AID493160, AID493190]. Format: functional.

For assay [7], the system named is INS1. Description: beta-cell survival under cytokine stress – INS-1E, ATP luminescence, dry powder, dose response (AID 488844). It is filed as functional, cell-based. The following applies: Rattus norvegicus.
Assay [8] has as its system INS1. The assay is described as follows: suppression of NO production in INS-1E cells – cell-based, Griess absorbance, dry powder, set 2, dose response (AID 488868). It is filed as functional. Conditions: Rattus norvegicus. A general note: Griess reagent forms a coloured azo dye with nitrite.
Assay [9] is described as follows: suppression of NO production in INS-1E cells – cell-based, Griess absorbance, dry powder, set 3, dose response (AID 488870). It is filed as functional. The following applies: Rattus norvegicus.
The target in assay [10] is Vascular endothelial growth factor receptor 2 (Homo sapiens, UniProt P35968). It is filed as functional.
Chain of Vascular endothelial growth factor receptor 2 (P35968 whole entry): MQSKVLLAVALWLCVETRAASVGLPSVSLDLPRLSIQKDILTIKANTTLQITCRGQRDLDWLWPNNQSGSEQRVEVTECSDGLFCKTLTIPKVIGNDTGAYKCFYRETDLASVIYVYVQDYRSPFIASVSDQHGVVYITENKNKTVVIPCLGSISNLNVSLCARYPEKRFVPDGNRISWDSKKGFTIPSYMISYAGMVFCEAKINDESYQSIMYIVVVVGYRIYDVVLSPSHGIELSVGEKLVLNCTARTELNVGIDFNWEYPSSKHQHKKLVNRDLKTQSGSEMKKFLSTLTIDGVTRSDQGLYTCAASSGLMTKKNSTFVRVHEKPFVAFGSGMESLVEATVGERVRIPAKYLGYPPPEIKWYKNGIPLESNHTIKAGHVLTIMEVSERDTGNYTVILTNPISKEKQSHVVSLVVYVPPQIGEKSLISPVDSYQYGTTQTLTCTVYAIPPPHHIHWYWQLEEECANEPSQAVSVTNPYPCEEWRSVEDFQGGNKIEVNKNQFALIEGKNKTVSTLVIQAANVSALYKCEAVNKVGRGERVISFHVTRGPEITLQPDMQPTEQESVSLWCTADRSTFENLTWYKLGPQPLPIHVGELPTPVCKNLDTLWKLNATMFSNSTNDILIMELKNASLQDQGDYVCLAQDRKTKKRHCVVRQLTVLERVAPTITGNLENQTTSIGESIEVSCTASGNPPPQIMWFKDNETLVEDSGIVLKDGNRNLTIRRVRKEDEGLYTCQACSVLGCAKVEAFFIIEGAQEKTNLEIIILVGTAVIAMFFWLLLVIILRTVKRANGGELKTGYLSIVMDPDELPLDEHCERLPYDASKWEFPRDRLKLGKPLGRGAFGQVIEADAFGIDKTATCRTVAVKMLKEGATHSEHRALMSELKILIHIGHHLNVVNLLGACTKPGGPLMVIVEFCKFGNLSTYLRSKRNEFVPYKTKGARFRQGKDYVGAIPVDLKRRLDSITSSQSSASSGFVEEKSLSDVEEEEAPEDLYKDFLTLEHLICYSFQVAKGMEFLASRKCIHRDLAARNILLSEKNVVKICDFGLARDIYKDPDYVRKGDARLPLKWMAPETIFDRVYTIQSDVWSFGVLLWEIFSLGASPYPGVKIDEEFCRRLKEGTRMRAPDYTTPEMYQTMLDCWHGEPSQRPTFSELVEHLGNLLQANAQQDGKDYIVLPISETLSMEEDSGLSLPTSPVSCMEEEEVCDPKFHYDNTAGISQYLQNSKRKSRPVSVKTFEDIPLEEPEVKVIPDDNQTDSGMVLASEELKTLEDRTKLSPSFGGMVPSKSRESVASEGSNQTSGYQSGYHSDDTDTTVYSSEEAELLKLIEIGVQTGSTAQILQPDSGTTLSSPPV
A further assay addresses T4, Aurora kinase A (Homo sapiens, UniProt O14965).
T4 sequence (O14965 whole entry): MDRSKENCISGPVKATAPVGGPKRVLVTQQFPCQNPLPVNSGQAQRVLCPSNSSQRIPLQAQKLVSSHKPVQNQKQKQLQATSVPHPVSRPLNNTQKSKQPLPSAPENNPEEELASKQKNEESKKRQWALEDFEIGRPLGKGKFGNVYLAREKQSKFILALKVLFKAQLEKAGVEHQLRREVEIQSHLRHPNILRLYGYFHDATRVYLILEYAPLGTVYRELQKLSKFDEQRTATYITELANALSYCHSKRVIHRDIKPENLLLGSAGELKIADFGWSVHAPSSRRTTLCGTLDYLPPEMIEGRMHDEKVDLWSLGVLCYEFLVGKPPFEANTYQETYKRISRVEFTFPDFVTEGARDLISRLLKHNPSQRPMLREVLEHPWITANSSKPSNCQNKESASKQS
Format: functional.

Another assay has as its target Aurora kinase B (Homo sapiens, UniProt Q96GD4). Format: functional.
Assay [11] concerns the target Melanin-concentrating hormone receptor 1 (Homo sapiens, UniProt Q99705). Description: Late-stage fluorescence-based counterscreen for antagonists of the G-protein coupled receptor 7 (GPR7): cell-based dose response assay to identify antagonists of the melanin-concentrating hormone receptor 1 (MCHR1) Set 5. It is filed as functional.
For a further assay, the system named is HEK293. Description: EBV LMP1 TES2 canonical NF-kB signalling blockers – cell-based, HEK293, luciferase, cherry-pick, dose response (AID 588343). Format: functional. Conditions: Homo sapiens.

Active and inactive are the calls of the source. Bounds are passed on as bounds.

Chain of Latent membrane protein 1 (P03230 whole entry): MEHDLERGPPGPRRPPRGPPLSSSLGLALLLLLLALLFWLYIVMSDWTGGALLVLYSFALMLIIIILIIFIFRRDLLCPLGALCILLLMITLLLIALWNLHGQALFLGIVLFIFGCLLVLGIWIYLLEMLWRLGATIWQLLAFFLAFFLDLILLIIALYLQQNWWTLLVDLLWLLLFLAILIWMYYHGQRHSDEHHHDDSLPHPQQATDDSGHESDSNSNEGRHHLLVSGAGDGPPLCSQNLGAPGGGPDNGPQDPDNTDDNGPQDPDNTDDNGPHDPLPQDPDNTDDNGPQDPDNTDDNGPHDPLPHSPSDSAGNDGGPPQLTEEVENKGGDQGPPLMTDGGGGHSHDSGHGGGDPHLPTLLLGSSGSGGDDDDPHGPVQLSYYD
Chain of Multidrug resistance protein CDR1 (P43071 whole entry, looked up): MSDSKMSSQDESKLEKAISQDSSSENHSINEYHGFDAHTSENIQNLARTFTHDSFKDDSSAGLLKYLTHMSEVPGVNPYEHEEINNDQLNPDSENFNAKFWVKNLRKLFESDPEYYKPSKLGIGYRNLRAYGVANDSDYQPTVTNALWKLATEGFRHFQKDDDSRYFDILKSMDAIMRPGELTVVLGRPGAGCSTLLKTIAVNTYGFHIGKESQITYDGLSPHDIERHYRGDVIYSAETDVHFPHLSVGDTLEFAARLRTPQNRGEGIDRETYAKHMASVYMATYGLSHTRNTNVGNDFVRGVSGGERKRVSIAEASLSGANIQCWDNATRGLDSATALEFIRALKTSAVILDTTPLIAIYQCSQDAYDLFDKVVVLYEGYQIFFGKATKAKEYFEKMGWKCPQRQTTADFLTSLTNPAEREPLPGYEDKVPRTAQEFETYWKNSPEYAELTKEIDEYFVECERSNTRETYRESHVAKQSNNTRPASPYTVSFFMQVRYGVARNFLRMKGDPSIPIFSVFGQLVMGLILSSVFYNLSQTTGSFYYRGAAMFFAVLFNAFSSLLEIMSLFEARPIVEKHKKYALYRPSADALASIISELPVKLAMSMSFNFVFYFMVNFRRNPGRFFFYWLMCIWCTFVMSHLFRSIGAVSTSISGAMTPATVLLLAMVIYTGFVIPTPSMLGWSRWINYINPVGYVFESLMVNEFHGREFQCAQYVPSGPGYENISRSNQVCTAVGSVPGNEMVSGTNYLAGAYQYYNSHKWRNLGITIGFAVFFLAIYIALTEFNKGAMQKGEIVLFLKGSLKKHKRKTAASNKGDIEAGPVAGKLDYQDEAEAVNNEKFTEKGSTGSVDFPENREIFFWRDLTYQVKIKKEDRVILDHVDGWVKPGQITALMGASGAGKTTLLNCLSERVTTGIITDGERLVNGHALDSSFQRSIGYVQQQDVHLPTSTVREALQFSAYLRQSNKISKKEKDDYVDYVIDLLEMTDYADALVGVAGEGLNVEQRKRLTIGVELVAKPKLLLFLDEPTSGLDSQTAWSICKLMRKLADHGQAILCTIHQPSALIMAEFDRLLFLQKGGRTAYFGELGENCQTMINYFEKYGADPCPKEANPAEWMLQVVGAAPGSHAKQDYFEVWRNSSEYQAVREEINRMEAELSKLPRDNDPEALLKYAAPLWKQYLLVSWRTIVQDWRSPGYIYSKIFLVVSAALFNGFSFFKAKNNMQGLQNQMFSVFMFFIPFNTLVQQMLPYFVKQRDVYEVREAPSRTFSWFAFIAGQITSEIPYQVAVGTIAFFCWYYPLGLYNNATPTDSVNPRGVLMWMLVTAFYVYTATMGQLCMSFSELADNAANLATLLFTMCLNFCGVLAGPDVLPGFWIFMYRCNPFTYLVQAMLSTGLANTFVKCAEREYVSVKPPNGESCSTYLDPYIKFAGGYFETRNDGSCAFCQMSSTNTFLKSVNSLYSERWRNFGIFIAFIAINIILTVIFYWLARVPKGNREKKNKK
Chain of Melanin-concentrating hormone receptor 1 (Q99705 whole entry): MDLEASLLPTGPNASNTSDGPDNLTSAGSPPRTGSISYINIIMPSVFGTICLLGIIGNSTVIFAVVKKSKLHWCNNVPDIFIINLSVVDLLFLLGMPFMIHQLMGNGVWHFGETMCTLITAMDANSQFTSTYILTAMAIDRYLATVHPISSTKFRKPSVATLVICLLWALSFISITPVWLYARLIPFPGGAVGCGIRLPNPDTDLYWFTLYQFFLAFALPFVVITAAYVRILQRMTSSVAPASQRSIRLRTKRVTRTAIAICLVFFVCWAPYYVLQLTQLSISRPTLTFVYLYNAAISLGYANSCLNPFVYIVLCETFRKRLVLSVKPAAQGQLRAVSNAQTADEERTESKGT
Chain of Aurora kinase B (Q96GD4 whole entry): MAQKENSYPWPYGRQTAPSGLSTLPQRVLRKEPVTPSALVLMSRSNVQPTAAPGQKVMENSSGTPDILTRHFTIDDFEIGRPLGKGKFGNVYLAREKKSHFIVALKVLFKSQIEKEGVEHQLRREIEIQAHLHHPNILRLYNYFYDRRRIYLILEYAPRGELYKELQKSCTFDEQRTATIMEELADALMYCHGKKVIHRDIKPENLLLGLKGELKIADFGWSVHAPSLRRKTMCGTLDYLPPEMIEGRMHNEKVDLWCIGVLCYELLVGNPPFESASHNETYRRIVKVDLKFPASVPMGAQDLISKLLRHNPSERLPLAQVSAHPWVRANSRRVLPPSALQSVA

In the case of `COCCN1Cc2cccc(C(=O)N3CCN(c4cc(C)ccc4C)CC3)c2C1=O`, the AC50 (in general, the concentration giving half of the maximal activity seen) in assay [1] is 53.1 µM (active).

`CCCCN(C)CC(O)Cn1cc(/C=C/C(=O)c2cccs2)c2ccccc21` (stereo unspecified): the concentration at half-maximal activity (AC50) in the assay with A-375 was 40.9 µM (active); in assay [2] it was 14.3 µM (active). Further, the EC50 – broadly, the midpoint of the concentration-response curve – in [3] was 13.4 µM (active); in assay [4] it was 10.5 µM (active). For the same compound, the IC50 – broadly, the midpoint of a concentration-inhibition curve – in the assay with CHO is 14.9 µM (inactive).

Take `COc1ccc2sc(-c3ccccc3OC)c(-c3ccc(OCCN4CCOCC4)cc3)c2c1`: the concentration giving a half-maximal response (EC50) in assay [5] is 10 µM (active); in assay [6], 10.6 µM (active).

In the case of `O=c1c2ccccc2nc(/C=C\c2ccccc2Cl)n1Cc1ccccc1`, the IC50 on Hexokinase-1 and at Hexokinase HKDC1 was > 80 µM (inactive) throughout.

`O=S(=O)(Nc1cc(Sc2nc[nH]n2)c(O)c2ccccc12)c1ccc(Cl)cc1`: the IC50 was 65.3 µM (inactive) on Hexokinase-1 and 9.86 µM (active) on Hexokinase HKDC1.

As to `C[C@@H]1CN([C@@H](C)CO)C(=O)c2cccc(NC(=O)Nc3cccc4ccccc34)c2O[C@H]1CN(C)S(=O)(=O)c1ccc(F)cc1`, the concentration at half-maximal activity (AC50) with INS1 [7] is 7.41 µM (active); with INS1 [8], 138 µM (active); in assay [9], 77.2 µM (active).

For `CC(C)CC(CO)NC(=O)C=Cc1cnc(N)c2ccccc12` (stereo unspecified), the Ki (usually the dissociation constant of the complex between target and ligand, obtained from inhibition or displacement) was > 5.01 µM (inactive) in [10], 1.58 µM (active) at Aurora kinase A and 0.0158 µM (active) on Aurora kinase B.

In the case of `O=c1c(Oc2ccc3c(c2)CCC3)c(Cl)cnn1Cc1cccc2ccccc12`, in [11], the IC50 was 17.9 µM (inactive).

For the compound `COc1cc([C@@H]2c3cc4c(cc3[C@@H](O[C@@H]3O[C@@H]5CO[C@@H](C)O[C@H]5[C@H](O)[C@H]3O)[C@H]3COC(=O)[C@H]23)OCO4)cc(OC)c1O` [ETOPOSIDE], the AC50 was 0.784 µM (active) in the assay on HEK293 and 0.4 µM (active) in assay [1].
